# Measurements published in article PMC9006293 (Blood Advances, 2022).
# Tests used:
# [1] = test system: DNIMV-specific T-cell hybridoma clones; experiment: Antigen-presentation assay, DNIMV-specific clones with fresh or fixed MGAR APCs; assay type: cell-based, mouse; details: fresh and paraformaldehyde-fixed MGAR APCs, 48 hours, ELISA
# HLA-DR molecules = details: FVIII-pulsed donor-derived human dendritic cells with diverse HLA-DRB1* molecules; cited from earlier work
# [2] = test system: PRCLT-specific T-cell hybridoma clones; experiment: Antigen-presentation assay, PRCLT-specific clones with fresh or fixed MGAR APCs; assay type: cell-based, mouse; details: fresh and paraformaldehyde-fixed MGAR APCs, 48 hours, ELISA
sequence,measurement,setting,value
DNIMVTFRNQASRPY,IL-2 response of DNIMV-specific clones,[1],activated
FRNQASRPY,HLA-DR binding,HLA-DR molecules,promiscuous pan-DR HLA-DR binding peptide
PRCLTRYYSSFVNME,IL-2 response of PRCLT-specific clones,[2],produced IL-2
